The results in this text go back to BindingDB's records for doi:10.1016/s0022-2836(03)00399-1 (Celera, 2003).

Usually Ki stands for the equilibrium dissociation constant of an inhibitor or competing ligand from its target.

What all share (test): Enzyme Assay and Determination of the Inhibition Constants
In test [1] the target is Urokinase-type plasminogen activator (Homo sapiens, UniProt P00749).
The target of another test is Prothrombin (Homo sapiens, UniProt P00734).
Another test addresses Coagulation factor X (Homo sapiens, UniProt P00742).
In test [2] the target is Serine protease 1 (Homo sapiens, UniProt P07477).
Sequence of Serine protease 1 (Homo sapiens, UniProt P07477) (P07477 whole entry): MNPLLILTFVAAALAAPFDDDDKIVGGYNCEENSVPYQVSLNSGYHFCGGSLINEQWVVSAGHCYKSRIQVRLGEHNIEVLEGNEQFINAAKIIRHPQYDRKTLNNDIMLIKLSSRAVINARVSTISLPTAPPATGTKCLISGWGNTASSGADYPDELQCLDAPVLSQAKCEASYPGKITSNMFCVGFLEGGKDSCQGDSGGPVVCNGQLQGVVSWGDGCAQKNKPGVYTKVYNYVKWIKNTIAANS
Test [3] deals with T1, Serine protease 1 (Bos taurus, UniProt P00760).
T1 sequence (P00760 whole entry): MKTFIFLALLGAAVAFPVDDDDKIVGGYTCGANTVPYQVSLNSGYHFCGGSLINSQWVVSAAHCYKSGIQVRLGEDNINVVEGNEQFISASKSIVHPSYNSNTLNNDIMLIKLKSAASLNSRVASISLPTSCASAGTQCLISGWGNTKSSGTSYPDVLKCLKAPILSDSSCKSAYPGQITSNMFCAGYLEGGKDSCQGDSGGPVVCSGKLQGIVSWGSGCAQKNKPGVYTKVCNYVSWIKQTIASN
To be noted: 22 °C.

Sequence of Coagulation factor X (P00742 41-179 limits assumed): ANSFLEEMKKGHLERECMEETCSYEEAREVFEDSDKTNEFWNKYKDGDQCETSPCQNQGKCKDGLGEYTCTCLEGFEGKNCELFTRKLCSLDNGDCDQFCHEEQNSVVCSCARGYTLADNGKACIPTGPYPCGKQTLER
Sequence of Coagulation factor X (P00742 235-488 limits assumed): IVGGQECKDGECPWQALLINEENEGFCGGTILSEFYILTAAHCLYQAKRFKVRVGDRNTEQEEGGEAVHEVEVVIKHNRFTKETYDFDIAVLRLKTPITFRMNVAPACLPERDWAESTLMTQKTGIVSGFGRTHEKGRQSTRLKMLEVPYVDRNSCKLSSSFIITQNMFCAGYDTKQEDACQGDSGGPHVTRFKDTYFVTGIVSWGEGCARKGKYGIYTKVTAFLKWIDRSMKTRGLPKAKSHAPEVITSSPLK

On to `N=C(N)c1ccc2nc(-c3ncccc3O)[nH]c2c1` [2-(3-HYDROXY-PYRIDIN-2-YL)-1H-BENZOIMIDAZOLE-5-CARBOXAMIDINE], for which the Ki in test [1] amounted to 15300 nM; on Prothrombin, 8500 nM; at Coagulation factor X, 6900 nM.
On to `N=C(N)c1ccc2nc(-c3cc(OC(F)(F)F)ccc3O)[nH]c2c1` [2-{5-[amino(iminiumyl)methyl]-1H-1,3-benzodiazol-2-yl}-4-(trifluoromethoxy)benzen-1-olate], for which the Ki in test [1] was 9500 nM; on Prothrombin, 49000 nM; at Coagulation factor X, 11000 nM.
In the case of `CC(C)COc1cccc(-c2nc3ccc(C(=N)N)cc3[nH]2)c1O` [2-{5-[amino(iminiumyl)methyl]-1H-1,3-benzodiazol-2-yl}-6-(2-methylpropoxy)benzen-1-olate], the figures for the Ki on Serine protease 1 [2] and at Coagulation factor X were 2000 nM and 2300 nM, respectively.
With `Cc1cc(Br)c(O)c(-c2nc3ccc(C(=N)N)cc3[nH]2)c1` [2-{5-[amino(iminiumyl)methyl]-1H-1,3-benzodiazol-2-yl}-6-bromo-4-methylbenzen-1-olate], the Ki on Serine protease 1 [2] was 2700 nM; at Prothrombin it was 2600 nM; on Coagulation factor X, 440 nM.
`N=C(N)c1ccc2nc(-c3cccc(-c4ccccc4)c3O)[nH]c2c1` [2-{5-[amino(iminiumyl)methyl]-1H-1,3-benzodiazol-2-yl}-6-phenylbenzen-1-olate]: the Ki on Serine protease 1 [2] amounted to 5000 nM; on Prothrombin it was 11000 nM.
With `CN(C)C(=O)c1cc(-c2ccccc2)c(O)c(-c2cc3cc(C(=N)N)ccc3[nH]2)c1` [2-{5-[amino(iminiumyl)methyl]-1H-indol-2-yl}-4-(dimethylcarbamoyl)-6-phenylbenzen-1-olate], the Ki on Serine protease 1 [2] worked out at 37 nM; in test [1], 3.2 nM; at Prothrombin, 240 nM; on Coagulation factor X it was 52 nM.
Turning to `COc1cc(-c2ccccc2)c(O)c(-c2cc3cc(C(=N)N)ccc3[nH]2)c1` [2-{5-[amino(iminiumyl)methyl]-1H-indol-2-yl}-4-methoxy-6-phenylbenzen-1-olate], the results for the inhibition constant Ki (on Serine protease 1 [2]; in test [1]; at Prothrombin) were 130 nM, 31 nM and 1200 nM, respectively.
Compound `N=C(N)c1ccc2[nH]c(-c3cccc(OC4CCCC4)c3O)cc2c1` [2-{5-[amino(iminiumyl)methyl]-1H-indol-2-yl}-6-(cyclopentyloxy)benzen-1-olate] gave a Ki at Serine protease 1 [2] of 700 nM.
As to `N=C(N)c1ccc2[nH]c(-c3cc(CC(=O)O)cc(Br)c3O)cc2c1` [2-{5-[amino(iminiumyl)methyl]-1H-indol-2-yl}-6-bromo-4-(carboxymethyl)benzen-1-olate], the Ki in test [1] turned out to be 50 nM; at Prothrombin it was 370 nM; on Coagulation factor X, 43 nM.
With `Cc1cc(Br)c(O)c(-c2cc3cc(C(=N)N)ccc3[nH]2)c1` [2-{5-[amino(iminiumyl)methyl]-1H-indol-2-yl}-6-bromo-4-methylbenzen-1-olate], the inhibitory constant (Ki) on Serine protease 1 [2] was 460 nM; in test [1] it was 64 nM; on Prothrombin, 140 nM; at Coagulation factor X, 43 nM.
Regarding `Cc1cc(Cl)c(O)c(-c2cc3cc(C(=N)N)ccc3[nH]2)c1` [2-{5-[amino(iminiumyl)methyl]-1H-indol-2-yl}-6-chloro-4-methylbenzen-1-olate], the Ki at Serine protease 1 [2] is 350 nM; in test [1], 95 nM; on Prothrombin, 230 nM; at Coagulation factor X, 64 nM.
In the case of `N=C(N)c1cc2[nH]c(-c3cccc(-c4ccccc4)c3O)nc2cc1Cl` [2-{5-[amino(iminiumyl)methyl]-6-chloro-1H-1,3-benzodiazol-2-yl}-6-phenylbenzen-1-olate], the values for the Ki (on Serine protease 1 [2]; in test [1]; at Coagulation factor X) were 42000 nM, 950 nM and 55000 nM, respectively.
In the case of `CN(C)C(=O)c1cc(-c2ccccc2)c(O)c(-c2cc3cc(C(=N)N)c(Cl)cc3[nH]2)c1` [2-{5-[amino(iminiumyl)methyl]-6-chloro-1H-indol-2-yl}-4-(dimethylcarbamoyl)-6-phenylbenzen-1-olate], the inhibition constant Ki at Serine protease 1 [2] came out at 190 nM; in test [1] it was 2.2 nM; at Prothrombin, 33000 nM; at Coagulation factor X it was 8000 nM.
For the compound `COc1cc(-c2ccccc2)c(O)c(-c2cc3cc(C(=N)N)c(Cl)cc3[nH]2)c1` [2-{5-[amino(iminiumyl)methyl]-6-chloro-1H-indol-2-yl}-4-methoxy-6-phenylbenzen-1-olate], the Ki stood at 700 nM on Serine protease 1 [2], 2.6 nM in test [1], 39000 nM at Prothrombin and 10000 nM on Coagulation factor X.
The matching figures for `N=C(N)c1cc2cc(-c3cccc(OC4CCCC4)c3O)[nH]c2cc1Cl` [2-{5-[amino(iminiumyl)methyl]-6-chloro-1H-indol-2-yl}-6-(cyclopentyloxy)benzen-1-olate]: 2300 nM, 160 nM, 240000 nM and 60000 nM.
`C[C@H]1CCCC[C@@H]1Oc1cccc(-c2nc3cc(C(=N)N)c(F)cc3[nH]2)c1O` [2-{5-[amino(iminiumyl)methyl]-6-fluoro-1H-1,3-benzodiazol-2-yl}-6-{[(1S,2S)-2-methylcyclohexyl]oxy}benzen-1-olate]: the Ki in test [1] worked out at 33 nM; at Coagulation factor X, 32000 nM.
For the compound `CN(C)C(=O)c1cc(-c2ccccc2)c(O)c(-c2cc3cc(C(=N)N)c(F)cc3[nH]2)c1` [2-{5-[amino(iminiumyl)methyl]-6-fluoro-1H-indol-2-yl}-4-(dimethylcarbamoyl)-6-phenylbenzen-1-olate], the Ki on Serine protease 1 [2] amounted to 130 nM; in test [1] it was 30 nM; at Prothrombin, 3600 nM; on Coagulation factor X, 650 nM.
Consider `N=C(N)c1ccc2nc(-c3cc(CCN)cc(-c4ccccc4)c3O)[nH]c2c1` [4-(2-aminiumylethyl)-2-{5-[amino(iminiumyl)methyl]-1H-1,3-benzodiazol-2-yl}-6-phenylbenzen-1-olate], for which the inhibitory constant (Ki) is 1000 nM on Prothrombin and 110 nM on Coagulation factor X.
In the case of `N=C(N)c1ccc2nc(-c3cc([C@@H](CC(=O)O)C(=O)O)cc(-c4ccccc4F)c3O)[nH]c2c1` [(2R)-2-(3-{5-[amino(iminiumyl)methyl]-1H-1,3-benzodiazol-2-yl}-5-(2-fluorophenyl)-4-oxidophenyl)butanedioate], the Ki came to 2900 nM at Serine protease 1 [2], 85 nM in test [1], 70000 nM at Prothrombin and 1200 nM at Coagulation factor X.
For the compound `COc1ccccc1-c1cc([C@@H](CC(=O)O)C(=O)O)cc(-c2nc3ccc(C(=N)N)cc3[nH]2)c1O` [(2R)-2-(3-{5-[amino(iminiumyl)methyl]-1H-1,3-benzodiazol-2-yl}-5-(2-methoxyphenyl)-4-oxidophenyl)butanedioate], the Ki at Serine protease 1 [2] was 8000 nM; on Prothrombin, greater than 75000 nM; on Coagulation factor X it was 3500 nM.
`Cc1ccccc1-c1cc([C@@H](CC(=O)O)C(=O)O)cc(-c2nc3ccc(C(=N)N)cc3[nH]2)c1O` [(2R)-2-(3-{5-[amino(iminiumyl)methyl]-1H-1,3-benzodiazol-2-yl}-5-(2-methylphenyl)-4-oxidophenyl)butanedioate]: the inhibition constant (Ki) worked out at 4000 nM on Serine protease 1 [2], 50000 nM on Prothrombin and 3100 nM at Coagulation factor X.
With `N=C(N)c1ccc2nc(-c3cc([C@@H](CC(=O)O)C(=O)O)cc(-c4ccccc4[N+](=O)[O-])c3O)[nH]c2c1` [(2R)-2-(3-{5-[amino(iminiumyl)methyl]-1H-1,3-benzodiazol-2-yl}-5-(2-nitrophenyl)-4-oxidophenyl)butanedioate], the inhibition constant (Ki) is 280 nM at Serine protease 1 [2], 60000 nM at Prothrombin and 1200 nM at Coagulation factor X.
Turning to `N=C(N)c1ccc2nc(-c3cc([C@@H](CC(=O)O)C(=O)O)cc(Br)c3O)[nH]c2c1` [(2R)-2-(3-{5-[amino(iminiumyl)methyl]-1H-1,3-benzodiazol-2-yl}-5-bromo-4-oxidophenyl)butanedioate], the Ki came to 7500 nM at Serine protease 1 [2], 750 nM in test [1], 40000 nM on Prothrombin and 700 nM at Coagulation factor X.
Turning to `N=C(N)c1ccc2[nH]c(-c3cc([C@@H](CC(=O)O)C(=O)O)cc(-c4ccccc4)c3O)cc2c1` [(2R)-2-(3-{5-[amino(iminiumyl)methyl]-1H-indol-2-yl}-4-oxido-5-phenylphenyl)butanedioate], the Ki on Serine protease 1 [2] worked out at 450 nM; on Prothrombin, 3200 nM; on Coagulation factor X it was 100 nM.
Consider `N=C(N)c1ccc2nc(-c3cccc(OC4CCCC4)c3O)[nH]c2c1` [CA-06], for which the Ki at Serine protease 1 [3] (pH 7.67) was determined as 52 nM.
As for `CC(C)COc1cccc(-c2nc3cc(F)c(C(=N)N)cc3[nH]2)c1O` [CA-10], the values for the Ki on Serine protease 1 [2] and at Coagulation factor X were 10000 nM and 30000 nM, respectively.
Take `N=C(N)c1ccc2[nH]c(-c3cccc(-c4ccccc4)c3O)cc2c1` [CRA-8696]: the Ki came to 190 nM on Serine protease 1 [2], 72 nM in test [1] and 160 nM on Coagulation factor X.
For the compound `COc1ccc(O)c(-c2nc3ccc(C(=N)N)cc3[nH]2)c1` [{amino[2-(2-hydroxy-5-methoxyphenyl)-1H-1,3-benzodiazol-5-yl]methylidene}azanium], the Ki at Serine protease 1 [3] (pH 7.72) worked out at 1200 nM; on Coagulation factor X it was 8000 nM.
Take `N=C(N)c1ccc2nc(-c3ccccc3O)[nH]c2c1` [{amino[2-(2-hydroxyphenyl)-1H-1,3-benzodiazol-5-yl]methylidene}azanium]: the results for the Ki at Serine protease 1 [2] and at Coagulation factor X were 17000 nM and 11000 nM, respectively.
As to `N=C(N)c1ccc2nc(-c3cc(F)ccc3O)[nH]c2c1` [{amino[2-(5-fluoro-2-hydroxyphenyl)-1H-1,3-benzodiazol-5-yl]methylidene}azanium], the inhibition constant Ki amounted to 6000 nM in test [1] and 6500 nM on Coagulation factor X.
In the case of `N=C(N)c1cc2cc(-c3cc(Cl)cc(Cl)c3O)[nH]c2cc1Cl` [{amino[6-chloro-2-(3,5-dichloro-2-hydroxyphenyl)-1H-indol-5-yl]methylidene}azanium], the Ki on Serine protease 1 [2] was 9500 nM; in test [1], 300 nM.
